# Reference: ChEMBL document CHEMBL1201861, “Genomics of Drug Sensitity in Cancer screening data, Wellcome Trust Sanger Institute”
# pIC50: −log10 of the molar value. “And” between values parts separate entries of the source, which are not always exact repeats. Equal values may be shown once. Where a SMILES comes first, the peptide text is derived from it. The star is where a group is joined. Cbz = O=C(OCc1ccccc1)*
# Columns and labels:
# Assay in all cases: cells
# COLO-824 = assay type: functional, cell-based, Homo sapiens
# Description: SANGER: Inhibition of human COLO-824 cell growth in a cell viability assay.
# CW-2 = assay type: functional, cell-based, Homo sapiens;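 also: growth inhibition of CW-2 cells, read out by a cell viability assay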
# Description: SANGER: Inhibition of human CW-2 cell growth in a cell viability assay.
# DB = assay type: functional, cell-based, Homo sapiens
# Description: SANGER: Inhibition of human DB cell growth in a cell viability assay.
# DEL = assay type: functional, cell-based, Homo sapiens;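 also: growth inhibition of the human DEL cell line, read out with a cell viability assay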
# Description: SANGER: Inhibition of human DEL cell growth in a cell viability assay.
# DMS-114 = assay type: functional, cell-based, Homo sapiens
# DSH1 = assay type: functional, cell-based; settings: Homo sapiens;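 also: growth inhibition of human DSH1 cells, measured with a cell viability readout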
# Description: SANGER: Inhibition of human DSH1 cell growth in a cell viability assay.
# ES3 = assay type: functional, cell-based, Homo sapiens;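 also: growth inhibition of ES3 cells, read out with a cell viability assay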
# Description: SANGER: Inhibition of human ES3 cell growth in a cell viability assay.
# ES8 = assay type: functional, cell-based, Homo sapiens;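 also: growth inhibition of human ES8 cells, read out with a cell viability assay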
# Description: SANGER: Inhibition of human ES8 cell growth in a cell viability assay.
# EOL1 = assay type: functional, cell-based, Homo sapiens;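 also: growth inhibition of EoL-1 cells, read out by a cell viability assay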
# Description: SANGER: Inhibition of human EoL-1-cell cell growth in a cell viability assay.
# GB-1 = assay type: functional, cell-based, Homo sapiens;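 also: growth of GB-1 cells judged by a viability assay, IC50 marks the concentration inhibiting growth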
# Description: SANGER: Inhibition of human GB-1 cell growth in a cell viability assay.
# GCIY = assay type: functional, cell-based, Homo sapiens;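 also: growth inhibition of the human GCIY cell line, read out by a cell viability assay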
# Description: SANGER: Inhibition of human GCIY cell growth in a cell viability assay.
# GR-ST = assay type: functional, cell-based, Homo sapiens
# Description: SANGER: Inhibition of human GR-ST cell growth in a cell viability assay.
# GT3TKB = assay type: functional, cell-based, Homo sapiens;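 also: growth inhibition of the cell line, read out with a cell viability assay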
# Description: SANGER: Inhibition of human GT3TKB cell growth in a cell viability assay.
# HAL-01 = assay type: functional, cell-based, Homo sapiens;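 also: growth inhibition of human HAL-01 cells, read out with a cell viability assay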
# Description: SANGER: Inhibition of human HAL-01 cell growth in a cell viability assay.
# HH = assay type: functional, cell-based, Homo sapiens
# Description: SANGER: Inhibition of human HH cell growth in a cell viability assay.
# JAR = assay type: functional, cell-based, Homo sapiens;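 also: growth inhibition of human JAR cells determined with a cell viability assay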
# Description: SANGER: Inhibition of human JAR cell growth in a cell viability assay.
# K5 = assay type: functional, cell-based, Homo sapiens
# Description: SANGER: Inhibition of human K5 cell growth in a cell viability assay.
# KM-H2 = assay type: functional, cell-based, Homo sapiens;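 also: growth inhibition of KM-H2 cells, read out by a cell viability assay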
# Description: SANGER: Inhibition of human KM-H2 cell growth in a cell viability assay.
# LB1047-RCC = assay type: functional, cell-based, Homo sapiens;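 also: inhibition of cell growth, determined with a cell viability assay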
# Description: SANGER: Inhibition of human LB1047-RCC cell growth in a cell viability assay.
# LB2241-RCC = assay type: functional, cell-based, Homo sapiens;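 also: cell viability assay measuring how strongly the cultured human renal carcinoma line is prevented from growing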
# Description: SANGER: Inhibition of human LB2241-RCC cell growth in a cell viability assay.
# LS-123 = assay type: functional, cell-based, Homo sapiens
# Description: SANGER: Inhibition of human LS-123 cell growth in a cell viability assay.
# LS-411N = assay type: functional, cell-based, Homo sapiens
# MC116 = assay type: functional, cell-based, Homo sapiens;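 also: growth inhibition of MC116 cells, read out with a cell viability assay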
# Description: SANGER: Inhibition of human MC116 cell growth in a cell viability assay.
# MHH-NB-11 = assay type: functional, cell-based, Homo sapiens;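 also: growth inhibition of human MHH-NB-11 cells, read out by a cell viability assay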
# Description: SANGER: Inhibition of human MHH-NB-11 cell growth in a cell viability assay.
# MHH-PREB-1 = assay type: functional, cell-based, Homo sapiens;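 also: cell viability assay measuring inhibition of proliferation of human MHH-PREB-1 cells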
# Description: SANGER: Inhibition of human MHH-PREB-1 cell growth in a cell viability assay.
# MLMA = assay type: functional, cell-based, Homo sapiens;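 also: growth inhibition of MLMA cells (human), determined through a cell viability readout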
# Description: SANGER: Inhibition of human MLMA cell growth in a cell viability assay.
# NB6 = assay type: functional, cell-based, Homo sapiens;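 also: growth inhibition of NB6 cells, read out by a cell viability assay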
# Description: SANGER: Inhibition of human NB6 cell growth in a cell viability assay.
# NCI-H1650 = assay type: functional, cell-based, Homo sapiens;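 also: growth inhibition of human NCI-H1650 cells measured by a cell viability assay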
# Description: SANGER: Inhibition of human NCI-H1650 cell growth in a cell viability assay.
# NCI-H526 = assay type: functional, cell-based, Homo sapiens;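 also: growth inhibition of the human NCI-H526 cell line, measured by a cell viability assay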
# Description: SANGER: Inhibition of human NCI-H526 cell growth in a cell viability assay.
# NMC-G1 = assay type: functional, cell-based, Homo sapiens;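 also: growth inhibition of the NMC-G1 cell line, measured with a cell viability read-out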
# Description: SANGER: Inhibition of human NMC-G1 cell growth in a cell viability assay.
# RS4-11 = assay type: functional, cell-based, Homo sapiens;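 also: growth inhibition of RS4-11 cells, read out by a cell viability assay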
# Description: SANGER: Inhibition of human RS4-11 cell growth in a cell viability assay.
# SCC-15 = assay type: functional, cell-based, Homo sapiens;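 also: growth inhibition of SCC-15 cells, read out with a cell viability assay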
# Description: SANGER: Inhibition of human SCC-15 cell growth in a cell viability assay.
# SF-268 = assay type: functional, cell-based, Homo sapiens;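 also: growth inhibition of SF-268 cells determined with a cell viability assay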
# Description: SANGER: Inhibition of human SF268 cell growth in a cell viability assay.
# SJSA-1 = assay type: functional, cell-based, Homo sapiens;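 also: growth inhibition of human SJSA-1 cells, read out through a cell viability measurement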
# Description: SANGER: Inhibition of human SJSA-1 cell growth in a cell viability assay.
# SW872 = assay type: functional, cell-based, Homo sapiens;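 also: growth inhibition of SW872 cells, read out by a viability assay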
# Description: SANGER: Inhibition of human SW872 cell growth in a cell viability assay.
# SW982 = assay type: functional, cell-based; settings: Homo sapiens;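 also: growth inhibition of SW982 cells, read out with a cell viability assay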
# Description: SANGER: Inhibition of human SW982 cell growth in a cell viability assay.
# 8-MG-BA = assay type: functional, cell-based, Homo sapiens;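 also: growth inhibition of 8-MG-BA cells, read out with a cell viability assay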
# Description: SANGER: Inhibition of human 8-MG-BA cell growth in a cell viability assay.
# A253 cell line = assay type: functional, cell-based, Homo sapiens;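 also: growth inhibition of A253 cells, read out with a cell viability assay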
# Description: SANGER: Inhibition of human A253 cell growth in a cell viability assay.
# A498 = assay type: functional, cell-based, Homo sapiens;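 also: growth inhibition of human A498 cells, read out with a cell viability assay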
# Description: SANGER: Inhibition of human A498 cell growth in a cell viability assay.
# BB65-RCC = assay type: functional, cell-based, Homo sapiens;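 also: growth inhibition of the cell line, measured with a cell viability assay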
# Description: SANGER: Inhibition of human BB65-RCC cell growth in a cell viability assay.
# BE-13 = assay type: functional, cell-based, Homo sapiens;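 also: growth inhibition of human BE-13 cells, measured with a cell viability assay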
# Description: SANGER: Inhibition of human BE-13 cell growth in a cell viability assay.
# BT-474 = assay type: functional, cell-based, Homo sapiens
# Description: SANGER: Inhibition of human BT-474 cell growth in a cell viability assay.
# C2BBe1 = assay type: functional, cell-based, Homo sapiens;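 also: growth inhibition of C2BBe1 cells, read out through a viability assay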
# Description: SANGER: Inhibition of human C2BBe1 cell growth in a cell viability assay.
# TE-11 = assay type: functional, cell-based; settings: Homo sapiens;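 also: growth inhibition of human TE-11 cells, read out by a cell viability assay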
# Description: SANGER: Inhibition of human TE-11 cell growth in a cell viability assay.
# TE-9 = assay type: functional, cell-based, Homo sapiens;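 also: cell growth inhibition, measured with a cell viability readout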
# Description: SANGER: Inhibition of human TE-9 cell growth in a cell viability assay.
# TGBC24TKB = assay type: functional, cell-based; settings: Homo sapiens;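 also: growth inhibition of human TGBC24TKB cells, read out with a cell viability assay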
# Description: SANGER: Inhibition of human TGBC24TKB cell growth in a cell viability assay.
# TGW = assay type: functional, cell-based, Homo sapiens;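 also: growth inhibition of human TGW cells, read out with a cell viability assay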
# Description: SANGER: Inhibition of human TGW cell growth in a cell viability assay.
# no-10 = assay type: functional, cell-based, Homo sapiens;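 also: growth inhibition of no-10 cells, read out with a cell viability assay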
# Description: SANGER: Inhibition of human no-10 cell growth in a cell viability assay.
# COLO-320-HSR = assay type: functional, cell-based, Homo sapiens;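 also: growth inhibition of COLO-320-HSR cells, determined with a cell viability assay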
# Description: SANGER: Inhibition of human COLO-320-HSR cell growth in a cell viability assay.
# COLO-684 = assay type: functional, cell-based, Homo sapiens
# Description: SANGER: Inhibition of human COLO-684 cell growth in a cell viability assay.
compound,measurement,setting,value
CCCCCCCCCCCC1=C(O)C(=O)C=C(O)C1=O [EMBELIN],pIC50,"COLO-824; Homo sapiens, COLO-824",< 4.49
same,pIC50,"CW-2; Homo sapiens, CW-2",< 4.49
same,pIC50,"DB; Homo sapiens, DB",< 4.49
same,pIC50,"DEL; Homo sapiens, DEL",4.98
same,pIC50,"DMS-114; Homo sapiens, DMS-114",< 4.49
same,pIC50,DSH1,< 4.49
same,pIC50,"ES3; Homo sapiens, ES3",4.81
same,pIC50,"ES8; Homo sapiens, ES8",4.85
same,pIC50,"EOL1; Homo sapiens, EOL1",5.17
same,pIC50,"GB-1; Homo sapiens, GB-1",5.28
same,pIC50,"GCIY; Homo sapiens, GCIY",4.99
same,pIC50,"GR-ST; Homo sapiens, GR-ST",5.24
same,pIC50,"GT3TKB; Homo sapiens, GT3TKB",5.44
same,pIC50,"HAL-01; Homo sapiens, HAL-01",4.59
same,pIC50,"HH; Homo sapiens, HH",< 4.49
same,pIC50,"JAR; Homo sapiens, JAR",< 4.49
same,pIC50,"K5; Homo sapiens, K5",< 4.49
same,pIC50,"KM-H2; Homo sapiens, KM-H2",4.58
same,pIC50,"LB1047-RCC; Homo sapiens, LB1047-RCC",5.24
same,pIC50,"LB2241-RCC; Homo sapiens, LB2241-RCC",< 4.49
same,pIC50,"LS-123; Homo sapiens, LS-123",5.03
same,pIC50,"LS-411N; Homo sapiens, LS-411N",5.13
same,pIC50,"MC116; Homo sapiens, MC116",5.55
same,pIC50,"MHH-NB-11; Homo sapiens, MHH-NB-11",< 4.49
same,pIC50,"MHH-PREB-1; Homo sapiens, MHH-PREB-1",4.96
same,pIC50,"MLMA; Homo sapiens, MLMA",< 4.49
same,pIC50,"NB6; Homo sapiens, NB6",< 4.49
same,pIC50,"NCI-H1650; Homo sapiens, NCI-H1650",4.68
same,pIC50,"NCI-H526; Homo sapiens, NCI-H526",< 4.49
same,pIC50,"NMC-G1; Homo sapiens, NMC-G1",5.16
same,pIC50,"RS4-11; Homo sapiens, RS4-11",4.98
same,pIC50,"SCC-15; Homo sapiens, SCC-15",5.11
same,pIC50,"SF-268; Homo sapiens, SF-268",5.10
same,pIC50,"SJSA-1; Homo sapiens, SJSA-1",5.37
same,pIC50,"SW872; Homo sapiens, SW872",4.79
same,pIC50,SW982,5.13
same,pIC50,"8-MG-BA; Homo sapiens, 8-MG-BA",5.45
same,pIC50,"A253 cell line; Homo sapiens, A253",5.11
same,pIC50,"A498; Homo sapiens, A498",< 4.49
same,pIC50,"BB65-RCC; Homo sapiens, BB65-RCC",4.94
same,pIC50,"BE-13; Homo sapiens, BE-13",4.64
same,pIC50,"BT-474; Homo sapiens, BT-474",< 4.49
same,pIC50,"C2BBe1; Homo sapiens, C2BBe1",4.86
same,pIC50,TE-11,< 4.49
same,pIC50,"TE-9; Homo sapiens, TE-9",5.07
same,pIC50,TGBC24TKB,4.58
same,pIC50,"TGW; Homo sapiens, TGW",< 4.49
same,pIC50,no-10; Homo sapiens,4.86
same,pIC50,"COLO-320-HSR; Homo sapiens, COLO-320-HSR",4.77
same,pIC50,"COLO-684; Homo sapiens, COLO-684",4.69
CC(C)C[C@@H](C=O)NC(=O)[C@H](CC(C)C)NC(=O)[C@H](CC(C)C)NC(=O)OCc1ccccc1 [MG-132] (Cbz-Leu-Leu-Leu-aldehyde),pIC50,COLO-824; colo-824,< 6.00
same,pIC50,CW-2; cw-2,< 6.00
same,pIC50,DB; db,< 6.00
same,pIC50,DEL; del,< 6.00
same,pIC50,DMS-114; dms-114,< 6.00
same,pIC50,ES3; es3,< 6.00
same,pIC50,ES8; es8,6.61 and < 6.00
same,pIC50,"EOL1; Homo sapiens, EOL1",< 6.00
same,pIC50,EOL1; eol1,< 6.00
same,pIC50,GB-1; gb-1,6.14 and < 6.00
same,pIC50,GCIY; gciy,< 6.00
same,pIC50,GR-ST; gr-st,< 6.00
same,pIC50,GT3TKB; gt3tkb,< 6.00
same,pIC50,HAL-01; hal-01,< 6.00
same,pIC50,"HH; Homo sapiens, HH",6.48
same,pIC50,HH; hh,6.24
same,pIC50,JAR; jar,< 6.00
same,pIC50,K5; k5,< 6.00
same,pIC50,"KM-H2; Homo sapiens, KM-H2",< 6.00
same,pIC50,KM-H2; km-h2,< 6.00
same,pIC50,"LB1047-RCC; Homo sapiens, LB1047-RCC",< 6.00
same,pIC50,LB1047-RCC; lb1047-rcc,< 6.00
same,pIC50,LB2241-RCC; lb2241-rcc,6.85 and 6.06
same,pIC50,LS-123; ls-123,< 6.00
same,pIC50,LS-411N; ls-411n,< 6.00
same,pIC50,MC116; mc116,< 6.00
same,pIC50,"MHH-NB-11; Homo sapiens, MHH-NB-11",< 6.00
same,pIC50,MHH-NB-11; mhh-nb-11,< 6.00
same,pIC50,MHH-PREB-1; mhh-preb-1,< 6.00
same,pIC50,MLMA; mlma,< 6.00
same,pIC50,NB6; nb6,< 6.00
same,pIC50,NCI-H1650; nci-h1650,< 6.00
same,pIC50,NCI-H526; nci-h526,< 6.00
same,pIC50,NMC-G1; nmc-g1,< 6.00
same,pIC50,RS4-11; rs4-11,< 6.00 and 6.02
same,pIC50,SCC-15; scc-15,< 6.00
same,pIC50,SF-268; sf-268,6.18 and < 6.00
same,pIC50,"SJSA-1; Homo sapiens, SJSA-1",< 6.00
same,pIC50,SJSA-1; sjsa-1,< 6.00
same,pIC50,SW872; sw872,6.18 and < 6.00
same,pIC50,SW982,< 6.00
same,pIC50,8-MG-BA; 8-mg-ba,6.40 and < 6.00
same,pIC50,A253 cell line; a253,6.79 and < 6.00
same,pIC50,"A498; Homo sapiens, A498",< 6.00
same,pIC50,A498; a498,< 6.00
same,pIC50,BB65-RCC; bb65-rcc,6.25 and < 6.00
same,pIC50,BE-13; be-13,< 6.00 and 6.25
same,pIC50,BT-474; bt-474,< 6.00
same,pIC50,C2BBe1; c2bbe1,6.55 and < 6.00
same,pIC50,TE-11,< 6.00
same,pIC50,TE-9; te-9,6.21 and < 6.00
same,pIC50,TGBC24TKB,< 6.00
same,pIC50,TGW; tgw,< 6.00
same,pIC50,no-10,7.05 and 6.22
same,pIC50,COLO-320-HSR; colo-320-hsr,< 6.00
same,pIC50,COLO-684; colo-684,6.04 and < 6.00
